Active and inactive are the calls of the source.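 The calls were made as follows: active = clearly stronger inhibition of the target decarboxylase than of the coupling enzymes tested in parallel without it; inactive = the rest.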
What follows are molecules tested against diphosphomevalonate decarboxylase (Streptococcus pneumoniae D39) (assay: diphosphomevalonate decarboxylase inhibition dose curves – biochemical, PK/LDH-coupled NADH fluorescence, hexokinase coupling counter-screen, dose response (AID 550)). Details: purified DPM-DC.

SMILES	outcome	IC50
Cc1c(C(=O)NC2CC2)oc2ccc(S(=O)(=O)N3CCCCCC3)cc12	inactive	
COCCn1nnnc1CN(Cc1cccnc1)Cc1cc2cc(OC)ccc2[nH]c1=O	inactive	
COc1cc(NC(=O)c2cccs2)c(C(=O)OCC(=O)NCc2ccco2)cc1OC	inactive	
N#C/C(=C\C1CC=CCC1)c1nc2ccccc2[nH]1 (stereo unspecified)	inactive	
Cc1occc1C(=O)Nc1nnc(C(F)(F)F)s1	inactive	
Cc1cc(=O)cc(C)[nH]1	inactive	
COc1cc(NC(=O)c2ccco2)c(OC)cc1NC(=O)CCC(=O)Nc1cc(C)ccc1C	inactive	
CN1CC(=O)NC1=NC(=O)C12CC3CC(CC(C3)C1)C2	inactive	
CCCN1C(=O)C(NC(C)=O)c2cc(OC)ccc21 (stereo unspecified)	inactive	
CCOC(=O)CSc1cc(=O)n(C)c2cc(Cl)ccc12	inactive	
CCOc1ncccc1C(=O)Nc1ccc2c(C)cc(=O)oc2c1	inactive	
CCCOC(=O)Cc1n[nH]c(=O)[nH]c1=O	inactive	
CN(C)CCSc1nnc(-c2ccccc2)o1	inactive	
COc1cc(C2C(C#N)=C(C)NC3=C2C(=O)CC(C)(C)C3)cc(OC)c1O (stereo unspecified)	inactive	
CCN(CCNC(=O)C1CCN(c2nnc(-n3cccc3)s2)CC1)c1ccccc1	inactive	
O=C(c1ccc(F)cc1)N1CCC(N2CCCCCC2)CC1	inactive	

SMILES	outcome	IC50
COC(=O)c1cc2occc2n1CC(=O)Nc1ccc(OC)c(OC)c1OC	inactive	
CCOC(=O)c1cncc(NC(=O)c2ccccc2)c1	inactive	
CC(=O)Nc1cccc(NC(=O)CSc2nnnn2Cc2ccccc2)c1	inactive	
Cc1cccc(C)c1NC(=O)C(c1ccccc1)N1CCN(C(=O)c2ccco2)CC1 (stereo unspecified)	inactive	
CCOc1ccc(N2CC(C(=O)OC)CC2=O)cc1 (stereo unspecified)	inactive	
c1ccc(N2CCN(c3cnccn3)CC2)nc1	inactive	
O=C(Nc1ccc(N2CCCCC2)cc1)c1cccnc1	inactive	
CC(C)(O)P(C)(=O)c1ccccc1 (stereo unspecified)	inactive	
O=C1CCC(C(=O)N(Cc2ccco2)C2(C(=O)NC3CCCC3)CCCCC2)N1 (stereo unspecified)	inactive	
Nc1nc(N)c2sc3nc4c(cc3c2n1)CCC4	inactive	
CCCC(=O)Nc1ccc(N2CCN(C(=O)CCC)CC2)cc1	inactive	
CSc1ncc(Cl)c(C(=O)Nc2nnc(SC)s2)n1	inactive	
Cc1c(C(=O)NCC2CCCO2)sc2nc(-c3ccccc3)cn12 (stereo unspecified)	inactive	
CCN(CC)CCOC(=O)c1ccc(N=CC2=C(O)CC(C)(C)CC2=O)cc1	inactive	
Cc1cc(=O)[nH]c2ccccc12	inactive	
N#Cc1c(C(F)(F)F)cc(-c2ccco2)nc1SCc1ccncc1	inactive	

The next lines start with the values.

outcome	IC50	SMILES
inactive		Cn1c(=O)[nH]c(=O)c2c1nc(NC1CCCCC1)n2Cc1ccccc1
inactive		CCN(CC)c1nc2ccccc2n2cnnc12
inactive		COc1cccc2cc3c(=O)n(-c4ccccc4)nc-3oc12
inactive		OCCNc1ncnc2c1c(-c1ccccc1)c(-c1ccccc1)n2Cc1ccco1
inactive		Cc1nc2cc(NC(=O)NCc3ccco3)ccc2n1C
inactive		Cc1cc(=O)[nH]c(/N=C(\N)Nc2cccc3ccccc23)n1
inactive		CCc1cc(/C(Cc2ccc3ccccc3n2)=N\O)c(O)cc1O
	76.3 µM	COc1ccccc1NC(=O)C1=C(C)NC2=C(C(=O)CCC2)C1c1ccc2c(c1)OCO2 (stereo unspecified)
inactive		CN(C)Cc1nc2ccccc2c(=O)n1Cc1nc(-c2cc3ccccc3o2)cs1
inactive		CCCn1c(=O)c2ccccc2n2c(SCC(=O)/C(C#N)=C(\C)N)nnc12
inactive		COc1ccc(-c2cc(C(F)(F)F)nc(SCCC(=O)Nc3cc(C)on3)n2)cc1
inactive		O=C(NCc1cccnc1)c1ccc2c(=O)n(CCCN3CCCC3=O)c(=S)[nH]c2c1
inactive		CC1Cc2nc(SCC(=O)Nc3ccc4c(c3)OCO4)n(CCc3ccccc3)c(=O)c2S1 (stereo unspecified)
inactive		CCOc1ccc(N(CC(=O)Nc2ccc(F)c(F)c2)S(=O)(=O)c2c(C)noc2C)cc1
inactive		COc1ccc(C(O)Cn2c(=N)n(CCCN(C)C)c3ccccc32)cc1 (stereo unspecified)
inactive		O=c1[nH]c(-c2ccncc2)nc2ccccc12
inactive		COc1ccccc1NC(=O)CSc1nc(O)cc(=O)n1-c1ccccc1OC
inactive		CCCn1c(C)nc2c(c1=O)c1nc3ccccc3nc1n2-c1ccc2c(c1)OCCO2
inactive		Cc1cccc(OCC(O)Cn2c(-n3nc(C)cc3C)nc3c2c(=O)[nH]c(=O)n3C)c1 (stereo unspecified)
inactive		COc1cccc(C(=O)OCn2nnc3ccccc3c2=O)c1
inactive		COc1ccc(C2C3=C(OC(C)=O)c4ccccc4C3=Nc3c2c(=O)n(C)c(=O)n3C)cc1 (stereo unspecified)
inactive		CCCCCn1c(SCC#N)nc2cc(C(=O)NCC3CCCO3)ccc2c1=O (stereo unspecified)
inactive		Cc1ccc(-n2c(SCC(=O)NCc3ccco3)nnc2-c2cccnc2)c(C)c1
inactive		CC(NC(=O)c1cccc(N2CCCC2=O)c1)c1ccc2c(c1)OCCO2 (stereo unspecified)

Source: PubChem BioAssay AID550 (SRMLSC, 2006)
